Experimental data published in EP2140864A2 (H. Lundbeck A/S, priority 2001, dated 2002).
Where two headings read alike, the source gives them in different places.

Molecular target: T1, human GAL3 receptor (Homo sapiens, UniProt O60755)
T1 construct: expressed in transfected cells
T1 sequence (O60755 1-368): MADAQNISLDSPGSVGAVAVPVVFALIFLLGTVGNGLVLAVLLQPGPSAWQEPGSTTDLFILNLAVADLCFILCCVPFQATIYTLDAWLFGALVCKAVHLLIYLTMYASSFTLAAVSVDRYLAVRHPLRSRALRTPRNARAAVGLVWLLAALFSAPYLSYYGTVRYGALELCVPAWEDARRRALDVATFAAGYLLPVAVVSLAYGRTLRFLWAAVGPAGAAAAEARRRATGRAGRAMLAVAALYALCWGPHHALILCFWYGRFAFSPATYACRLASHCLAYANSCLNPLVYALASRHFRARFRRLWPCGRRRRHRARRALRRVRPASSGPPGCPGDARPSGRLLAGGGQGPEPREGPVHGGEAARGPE
Experiment: Radioligand binding at cloned human GAL3 receptor
Settings: cloned human receptor, read-out: Ki GalR3
In short: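 Membranes from LM(tk-) cells stably expressing human GAL3, prepared in binding buffer (HEPES-based, pH 7.4), used for radioligand binding. Solvent at final assay concentration: 3% DMSO for indolones, 1% ethanol/0.09% pluronic F-127 for pyrimidines. Binding data analysed by nonlinear regression.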

Ki (indolones) [µM]	SMILES	Ki (pyrimidines) [µM]
	CN(C)c1cccc(Nc2cc(N(C)C)nc(N3CCN(Cc4ccccc4)CC3)n2)c1 [Example 126]	0.099
	FC(F)(F)c1cccnc1N1CCN(c2nc(NC3CCCCC3)cc(N3CCCCC3)n2)CC1 [Example 35]	0.111
0.033	O=C1/C(=N\c2ccc(Cl)c(Cl)c2)c2ccccc2N1c1cc(Cl)cc(Cl)c1 [Example 257, (3Z)-1-(3,5-DICHLOROPHENYL)-3-[(3,4-DICHLOROPHENYL)IMINO]-1,3-DIHYDRO-2H-INDOL-2-ONE]	
	CN(C)c1cc(NC2CCCCCCC2)nc(N2CCN(Cc3ccccc3)CC2)n1 [Example 170]	0.091
	Cc1ccc(Nc2cc(N(C)C)nc(NCCNc3ccccc3)n2)cc1 [Example 176]	0.608
	Cc1ccc(Nc2cc(N(C)C)nc(N3CCN(c4ccccn4)CC3)n2)cc1Nc1ccccn1 [Example 242]	0.166
	COc1cc(Nc2cc(N(C)C)nc(N3CCN(Cc4ccccc4)CC3)n2)cc(C(F)(F)F)c1 [Example 225]	0.066
	Cc1ccc(Nc2cc(N(C)C)nc(N3CCN(c4ccc(C(N)=O)cn4)CC3)n2)cc1 [Example 141, 6-{4-[4-(DIMETHYLAMINO)-6-(4-TOLUDINO)-2-PYRIMIDINYL] -1-PIPERAZINYL}NICOTINAMIDE]	0.509
	COc1cccc(Nc2cc(N(C)C)nc(N3CCN(C4CCCCC4)CC3)n2)c1 [Example 163]	0.5
	CN(C)c1cc(Nc2ccc(Br)cc2F)nc(N2CCN(c3ccccn3)CC2)n1 [Example 199]	0.199
	COc1ccc(OC)c(Nc2cc(N(C)C)nc(N3CCN(c4ccccn4)CC3)n2)c1 [Example 201]	0.566
0.022	O=C1/C(=N\c2ccc3c(c2)OC(F)(F)O3)c2ccccc2N1c1ccccc1 [Example 298, (3Z)-3-[(2,2-DIFLUORO-1,3-BENZODIOXOL-5-YL)IMINO]-1-PHENYL-1,3-DIHYDRO-2H-INDOL-2-ONE]	
	COc1cccc(Nc2cc(N(C)C)nc(N3CCN(Cc4cccs4)CC3)n2)c1 [Example 165]	0.139
	CN(C)c1cc(Nc2ccc(SC(F)(F)F)c(Cl)c2)nc(N2CCN(c3ccccn3)CC2)n1 [Example 134]	0.025
	CN(C)c1cc(Nc2cc(F)ccc2Cl)nc(N2CCN(c3ccccn3)CC2)n1 [Example 222]	0.847
	COc1cccc(Nc2cc(N(C)C)nc(N3CCN(Cc4ccccc4OC)CC3)n2)c1 [Example 166]	0.263
	Cc1ccc(Nc2cc(N3CCCCC3)nc(N(C)CCc3c[nH]c4ccccc34)n2)cc1Cl [Example 16]	0.033
	COc1cccc(CCNc2nc(Nc3ccc(C)cc3)cc(N(C)C)n2)c1 [Example 149]	0.138
2.32	O=C1C(=Nc2ccc3[nH]ccc3c2)c2ccccc2N1c1ccccc1 (mixture of isomers) [Example 112, 3-(1H-INDOL-5-YLIMINO)-1-PHENYL-1,3-DIHYDRO-2H-INDOL-2-ONE]	

Ki (indolones) [µM]	SMILES	Ki (pyrimidines) [µM]
	CN(C)c1cc(Nc2ccc(Br)cc2)nc(Nc2ccccc2)n1 [Example 59]	0.566
	C[C@H]1[C@H](Nc2cc(N(C)C)nc(N3CCN(Cc4ccccc4)CC3)n2)C[C@@H]2C[C@@H]1C2(C)C [Example 139]	0.047
0.242	CC(C)c1cccc(/N=C2\C(=O)N(c3ccsc3)c3ccccc32)c1 [Example 295, (3Z)-3-[(3-ISOPROPYLPHENYL)IMINO]-1-(3-THIENYL)-1,3-DIHYDRO-2H-INDOL-2-ONE]	
	Cc1ccc(Nc2cc(N3CCCCC3)nc(N3CCN(Cc4ccccc4)CC3)n2)cc1 [Example 23]	0.06
0.046	O=C1/C(=N\c2ccc(Br)cc2)c2ccccc2N1c1ccsc1 [Example 269, (3Z)-3-[(4-BROMOPHENYL)IMINO]-1-(3-THIENYL)-1,3-DIHYDRO-2H-INDOL-2-ONE]	
	CN(C)c1cc(Nc2ccc(C#N)c(Cl)c2)nc(N2CCN(Cc3ccccc3)CC2)n1 [Example 129]	0.405
0.234	O=C1/C(=N\c2ccc(Cl)nc2)c2ccccc2N1c1ccsc1 [Example 267]	
0.059	Cc1ccc(C(F)(F)F)cc1/N=C1\C(=O)N(c2ccccc2)c2ccccc21 [Example 289, (3Z)-3-{[2-METHYL-5-(TRIFLUOROMETHYL)PHENYL]IMINO}-1-PHENYL-1,3-DIHYDRO-2H-INDOL-2-ONE]	
	COc1cccc(Nc2cc(N(C)C)nc(N3CCN(c4ccc(Br)cn4)CC3)n2)c1 [Example 143]	0.144
	Cc1ccc(Nc2cc(N3CCCCC3)nc(N3CCc4ccccc43)n2)cc1 [Example 39]	0.128
	Cc1ccc(C)c(Nc2cc(N(C)C)nc(N3CCN(c4ccccn4)CC3)n2)c1 [Example 213]	0.165
	Cc1ccc(Nc2cc(N(C)C)nc(N3CCN(S(=O)(=O)c4ccc(C)cc4)CC3)n2)cc1 [Example 84]	0.261
	COc1cccc(Nc2cc(N(C)C)nc(N3CCN(CC4CCCO4)CC3)n2)c1 (stereo not shown) [Example 233]	0.869
	Cc1ccc(Nc2cc(N(C)C)nc(NCCc3ccccc3)n2)cc1 [Example 250]	0.119
	COc1cccc(Nc2cc(N(C)C)nc(NCCc3ccccc3)n2)c1 [Example 247]	0.195
	CN(C)c1cc(Nc2cccc3c2CCCC3)nc(N2CCN(c3ccccn3)CC2)n1 [Example 122]	0.065
	CN(C)c1cc(Nc2cccc(F)c2)nc(N2CCN(Cc3ccccc3)CC2)n1 [Example 164]	0.06
	Cc1ccc(Nc2cc(N3CCCCC3)nc(N3CCN(c4c(C(F)(F)F)ccc[n+]4[O-])CC3)n2)cc1 [Example 249]	0.386
	CN(C)c1cc(Nc2ccccc2)nc(Nc2ccccc2)n1 [Example 50]	0.699

Ki (indolones) [µM]	SMILES	Ki (pyrimidines) [µM]
	Cc1ccc(Nc2cc(N(C)C)nc(N3CCN(c4ccc(O)cc4)CC3)n2)cc1 [Example 116]	0.479
	Cc1ccc(Nc2cc(N3CCCCC3)nc(Nc3ccc(C)cc3)n2)cc1 [Example 4]	0.627
	Cc1ccc(Nc2cc(N3CCCCC3)nc(N3Cc4cccc5cccc(c45)C3)n2)cc1 [Example 43]	0.107
	CN(C)c1cc(Nc2ccccc2C(C)(C)C)nc(N2CCN(c3ccccn3)CC2)n1 [Example 212]	0.231
1.18	O=C1C(=Nc2cccc(C(F)(F)F)c2)c2ccccc2N1Cc1csc2ccc(Cl)cc12 [Example 111, 1-[(5-CHLORO-1-BENZOTHIEN-3-YL)METHYL]-3-{[3-(TRIFLUOROMETHYL)PHENYL]IMINO}-1,3-DIHYDRO-2H-INDOL-2-ONE]	
	CCCc1ccccc1Nc1cc(N(C)C)nc(N2CCN(c3ccccn3)CC2)n1 [Example 185, N^4,N^4-dimethyl-N^6-(2-propylphenyl)-2-[4-(2-pyridinyl)-1-piperazinyl]-4,6-pyrimidinediamine]	0.365
	COc1cccc(Nc2cc(N(C)C)nc(N3CCN(c4ccccc4C(F)(F)F)CC3)n2)c1 [Example 246]	0.27
	CN(C)c1cc(Nc2ccc(C3CCCCC3)cc2)nc(N2CCN(c3ccccn3)CC2)n1 [Example 121]	0.021
0.569	Cc1nc2cc(N=C3C(=O)N(c4ccccc4)c4ccccc43)ccc2s1 (mixture of isomers) [Example 114, 3-[(2-METHYL-1,3-BENZOTHIAZOL-5-YL)IMINO]-1-PHENYL-1,3-DIHYDRO-2H-INDOL-2-ONE]	
	CN(C)c1cc(NC2C3CC4CC(C3)CC2C4)nc(N2CCN(Cc3ccccc3)CC2)n1 (stereo not shown) [Example 168]	0.05
	CN(C)c1cc(Nc2ccc(C(F)(F)F)cc2Cl)nc(N2CCN(c3ccccn3)CC2)n1 [Example 136]	0.025
	CCOc1cccc(Nc2cc(N(C)C)nc(N3CCN(c4ccccn4)CC3)n2)c1 [Example 135]	0.1
	CN(C)c1cc(Nc2cc(Cl)ccc2Cl)nc(N2CCN(c3ccccn3)CC2)n1 [Example 208]	0.12
	Cc1ccc(Nc2cc(N(C)C)nc(N3CCN(c4ccccn4)CC3)n2)c(Cl)c1 [Example 223]	0.559
0.08	O=C1/C(=N\c2ccc(-c3ccccc3)cc2)c2ccccc2N1c1ccsc1 [Example 265, (3Z)-3-([1,1'-BIPHENYL]-4-YLIMINO)-1-(3-THIENYL)-1,3-DIHYDRO-2H-INDOL-2-ONE]	
	CN(C)c1cc(Nc2cccc(I)c2)nc(N2CCN(c3ccccn3)CC2)n1 [Example 193]	0.244
	CN(C)c1cc(Nc2cccc(OCc3ccccc3)c2)nc(N2CCN(Cc3ccccc3)CC2)n1 [Example 228]	0.032
	CN(C)c1cc(Nc2ccc(Cl)cc2)nc(N2CCN(Cc3ccccc3)CC2)n1 [Example 171]	0.025

SMILES	Ki (indolones) [µM]	Ki (pyrimidines) [µM]
O=C1/C(=N\c2ccc(Cl)c(Cl)c2)c2ccccc2N1Cc1ccccn1 [Example 254]	0.064	
O=C1/C(=N\c2ccc(F)c(F)c2)c2ccccc2N1Cc1cccnc1 [Example 276]	0.192	
